# Assay results reported in patent US6083944A, “Quinoline-containing α-ketoamide cysteine and serine protease inhibitors” (Cephalon, Inc., priority 1998, dated 2000).
# pIC50: −log10 of the molar value.
# Molecular target: T1, Recombinant human calpain I (Homo sapiens, UniProt P07384)
# T1 construct: made in house
# T1 sequence (P07384 1-714): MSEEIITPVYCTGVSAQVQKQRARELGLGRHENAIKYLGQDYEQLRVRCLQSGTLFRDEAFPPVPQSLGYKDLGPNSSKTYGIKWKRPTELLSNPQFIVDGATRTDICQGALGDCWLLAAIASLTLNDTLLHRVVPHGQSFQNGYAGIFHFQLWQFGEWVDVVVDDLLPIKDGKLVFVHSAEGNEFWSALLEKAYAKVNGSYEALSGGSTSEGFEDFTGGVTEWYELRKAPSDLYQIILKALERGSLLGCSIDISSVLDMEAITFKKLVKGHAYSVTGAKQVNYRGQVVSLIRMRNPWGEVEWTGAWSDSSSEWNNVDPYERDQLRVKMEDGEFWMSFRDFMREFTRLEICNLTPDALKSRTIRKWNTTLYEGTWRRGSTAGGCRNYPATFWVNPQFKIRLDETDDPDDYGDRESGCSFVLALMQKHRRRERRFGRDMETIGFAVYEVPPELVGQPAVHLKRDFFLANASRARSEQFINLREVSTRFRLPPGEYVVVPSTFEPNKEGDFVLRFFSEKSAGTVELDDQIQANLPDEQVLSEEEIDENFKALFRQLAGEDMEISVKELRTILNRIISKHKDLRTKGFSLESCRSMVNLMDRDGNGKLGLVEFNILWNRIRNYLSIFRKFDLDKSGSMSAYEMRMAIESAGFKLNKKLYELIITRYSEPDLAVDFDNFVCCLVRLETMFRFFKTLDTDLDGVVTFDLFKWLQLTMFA
# Test: Inhibition of calpain I (Succ-Leu-Tyr-MNA hydrolysis)
# Type: biochemical
# Details: for inhibition at 10 µM: values in parentheses, at 10,000 nM; for Calpain I IC50 ** (value in parentheses: % inhibition): ** explained as 10,000 nM only in footnotes to Tables 2-4
# Protocol: To evaluate inhibitory activity, stock solutions (40 times concentrated) of each compound to be tested were prepared in 100% anhydrous DMSO and 5 μl of each inhibitor preparation was aliquoted into each of three wells of a 96-well plate. Recombinant human calpain I, prepared by the method of Meyer et al. (Biochem. J. 1996, 314: 511-519), was diluted into assay buffer (i.e., 50 mM Tris, 50 mM NaCl, 1 mM EDTA, 1 mM EGTA, and 5 mM β-mercaptoethanol, pH 7.5, including 0.2 mM Succ-Leu-Tyr-MNA), and 175 μl was aliquoted into the same wells containing the independent inhibitor stocks as well as to positive control wells containing 5 μl DMSO, but no compound. To start the reaction, 20 μl of 50 mM CaCl2 in assay buffer was added to all wells of the plate, excepting three, which were used as background signal baseline controls. Substrate hydrolysis was monitored every 5 minutes for a total of 30 minutes. Substrate hydrolysis in the absence of inhibitor was linear for up to 15 minutes.
# Inhibition of calpain I activity was calculated as the percent decrease in the rate of substrate hydrolysis in the presence of inhibitor relative to the rate in its absence. Comparison between the inhibited and control rates was made within the linear range for substrate hydrolysis. The IC50 S of inhibitors (concentration yielding 50% inhibition) were determined from the percent decrease in rates of substrate hydrolysis in the presence of five to seven different concentrations of the test compound. The results were plotted as percent inhibition versus log inhibitor concentration, and the IC50 was calculated by fitting the data to the four-parameter logistic equation shown below using the program GraphPad Prism (GraphPad Software, Inc., San Diego, Calif.).
# The parameters a, b, c, and d are defined as follows: a is % inhibition in the absence of inhibitor, b is the slope, c is the IC50, and d is the % inhibition at an infinite concentration of inhibitor.
Compound,inhibition at 10 µM (Tables 2-4),"pIC50 (Tables 2-4, pH 7.5)",other results
CCCCC(NC(=O)c1cc(Cl)nc2ccccc12)C(=O)C(=O)NCCNS(=O)(=O)c1ccc(Cl)c(Cl)c1 (centres unmarked) [Example 151],,,"pIC50 (Table 5, head prints no unit): 6.66"
CC(NC(=O)C(=O)C(Cc1ccccc1)NC(=O)c1cc(C#Cc2ccccc2)nc2ccccc12)c1cccc2ccccc12 (centres unmarked) [Example 26],31%,,
COc1ccc(C(=O)NCCNC(=O)C(=O)C(Cc2ccccc2)NC(=O)c2cc(C#Cc3ccccc3)nc3ccccc23)cc1 (centres unmarked) [Example 57],71%,,
O=C(NC1CCCCNC1=O)C(=O)C(Cc1ccccc1)NC(=O)c1cc(C#Cc2ccccc2)nc2ccccc12 (centres unmarked) [Example 22],,7.11,
CC(C)CC(NC(=O)c1cc(C#Cc2ccccc2)nc2ccccc12)C(=O)C(=O)NCCNC(=O)OCc1ccccc1 (centres unmarked) [Example 115],100%,,
O=C(NCCNC(=O)C(=O)C(Cc1ccccc1)NC(=O)c1cc(C#Cc2ccccc2)nc2ccccc12)Nc1ccccc1 (centres unmarked) [Example 64],,7.17,
C=CCNC(=O)C(=O)C(Cc1ccccc1)NC(=O)c1cc(C#Cc2ccccc2)nc2ccccc12 (centres unmarked) [Example 3],,6.68,
CS(=O)(=O)NCCCNC(=O)C(=O)C(Cc1ccccc1)NC(=O)c1cc(C#Cc2ccccc2)nc2ccccc12 (centres unmarked) [Example 99],,6.89,
O=C(NCCNS(=O)(=O)c1cccc2nsnc12)C(=O)C(Cc1ccccc1)NC(=O)c1cc(C#Cc2ccccc2)nc2ccccc12 (centres unmarked) [Example 71],,7.05,
COCCOCCCNC(=O)C(=O)C(Cc1ccccc1)NC(=O)c1cc(C#Cc2ccccc2)nc2ccccc12 (centres unmarked) [Example 8],,6.24,
O=C(NCCNS(=O)(=O)c1ccc(-c2ccccn2)s1)C(=O)C(Cc1ccccc1)NC(=O)c1cc(-c2cccs2)nc2ccccc12 (centres unmarked) [Example 146],,7.07,
COC(CNC(=O)C(=O)C(Cc1ccccc1)NC(=O)c1cc(C#Cc2ccccc2)nc2ccccc12)OC (centres unmarked) [Example 7],,6.96,
O=C(NC12CC3CC(CC(C3)C1)C2)C(=O)C(Cc1ccccc1)NC(=O)c1cc(C#Cc2ccccc2)nc2ccccc12 (centres unmarked) [Example 15],41%,,
O=C(NCCNS(=O)(=O)Cc1ccccc1)C(=O)C(Cc1ccccc1)NC(=O)c1cc(C#Cc2ccccc2)nc2ccccc12 (centres unmarked) [Example 92],,7.03,
"COc1ccc2nc(C)cc(C(=O)NC(Cc3ccccc3)C(=O)C(=O)NCCNS(=O)(=O)c3ccc(-c4ccccn4)s3)c2c1 (single isomer, unassigned) [Example 143]",,7.46,
O=C(NCCNS(=O)(=O)c1cccc([N+](=O)[O-])c1)C(=O)C(Cc1ccccc1)NC(=O)c1cc(C#Cc2ccccc2)nc2ccccc12 (centres unmarked) [Example 78],88%,,
CC(C)(C)OC(=O)CCNC(=O)C(=O)C(Cc1ccccc1)NC(=O)c1cc(C#Cc2ccccc2)nc2ccccc12 (centres unmarked) [Example 107],93%,,
O=C(NCCCCc1ccccc1)C(=O)C(Cc1ccccc1)NC(=O)c1cc(C#Cc2ccccc2)nc2ccccc12 (centres unmarked) [Example 34],,6.64,
O=C(NCC1CC1)C(=O)C(Cc1ccccc1)NC(=O)c1cc(C#Cc2ccccc2)nc2ccccc12 (centres unmarked) [Example 4],100%,,
CC(NC(=O)C(=O)C(Cc1ccccc1)NC(=O)c1cc(C#Cc2ccccc2)nc2ccccc12)c1ccccc1 (centres unmarked) [Example 27],,6.29,
CN(C)NC(=O)C(=O)C(Cc1ccccc1)NC(=O)c1cc(C#Cc2ccccc2)nc2ccccc12 (centres unmarked) [Example 110],43%,,
O=C(NCCCn1ccnc1)C(=O)C(Cc1ccccc1)NC(=O)c1cc(C#Cc2ccccc2)nc2ccccc12 (centres unmarked) [Example 50],84%,,
C#CCNC(=O)C(=O)C(Cc1ccccc1)NC(=O)c1cc(C#Cc2ccccc2)nc2ccccc12 (centres unmarked) [Example 1],91%,,
O=C(NCCNC(=O)C(=O)C(Cc1ccccc1)NC(=O)c1cc(C#Cc2ccccc2)nc2ccccc12)Nc1ccc(Br)cc1 (centres unmarked) [Example 61],94%,,

Compound,inhibition at 10 µM (Tables 2-4),"pIC50 (Tables 2-4, pH 7.5)",other results
O=C(NCCCCCO)C(=O)C(Cc1ccccc1)NC(=O)c1cc(C#Cc2ccccc2)nc2ccccc12 (centres unmarked) [Example 14],98%,,
O=C(NCc1cccnc1)C(=O)C(Cc1ccccc1)NC(=O)c1cc(C#Cc2ccccc2)nc2ccccc12 (centres unmarked) [Example 46],91%,,
O=C(NC1CCCCC1)C(=O)C(Cc1ccccc1)NC(=O)c1cc(C#Cc2ccccc2)nc2ccccc12 (centres unmarked) [Example 30],85%,,
CCCCC(NC(=O)c1cc(Cl)nc2ccccc12)C(=O)C(=O)NCCNS(=O)(=O)c1ccc([N+](=O)[O-])cc1 (centres unmarked) [Example 149],,,"pIC50 (Table 5, head prints no unit): 7.64"
COC(=O)C(Cc1ccccc1)NC(=O)C(=O)C(Cc1ccccc1)NC(=O)c1cc(C#Cc2ccccc2)nc2ccccc12 (centres unmarked) [Example 109],,6.18,
O=C(NCCNS(=O)(=O)c1ccc(-c2ccccn2)s1)C(=O)C(Cc1ccccc1)NC(=O)c1cc(C2CC2)nc2ccccc12 (centres unmarked) [Example 145],,7.15,
O=C(NCCNC(=O)C(=O)C(Cc1ccccc1)NC(=O)c1cc(C#Cc2ccccc2)nc2ccccc12)NC12CC3CC(CC(C3)C1)C2 (centres unmarked) [Example 63],,6.59,
CC(=O)NCCNC(=O)C(=O)C(Cc1ccccc1)NC(=O)c1cc(C#Cc2ccccc2)nc2ccccc12 (centres unmarked) [Example 60],,6.85,
COCC(NC(=O)c1cc(Cl)nc2ccccc12)C(=O)C(=O)NCCNS(=O)(=O)c1ccccc1 (centres unmarked) [Example 158],,,Calpain I IC50 ** (value in parentheses: % inhibition) (Table 5): 94%
C=C(C)C(=O)OCCNC(=O)C(=O)C(Cc1ccccc1)NC(=O)c1cc(C#Cc2ccccc2)nc2ccccc12 (centres unmarked) [Example 111],95%,,
COc1ccc(CCNC(=O)C(=O)C(Cc2ccccc2)NC(=O)c2cc(C#Cc3ccccc3)nc3ccccc23)cc1OC (centres unmarked) [Example 41],88%,,
COCCNC(=O)C(=O)C(CC(C)C)NC(=O)c1cc(C#Cc2ccccc2)nc2ccccc12 (centres unmarked) [Example 112],95%,,
O=C(NCCCO)C(=O)C(Cc1ccccc1)NC(=O)c1cc(C#Cc2ccccc2)nc2ccccc12 (centres unmarked) [Example 12],94%,,
O=C(NCCCCCCNS(=O)(=O)c1cccc2c(Cl)cccc12)C(=O)C(Cc1ccccc1)NC(=O)c1cc(C#Cc2ccccc2)nc2ccccc12 (centres unmarked) [Example 101],84%,,
O=C(NCCNS(=O)(=O)c1cccs1)C(=O)C(Cc1ccccc1)NC(=O)c1cc(C#Cc2ccccc2)nc2ccccc12 (centres unmarked) [Example 90],,7.12,
O=C(NCc1ccc2c(c1)OCO2)C(=O)C(Cc1ccccc1)NC(=O)c1cc(C#Cc2ccccc2)nc2ccccc12 (centres unmarked) [Example 33],,6.41,
CC(C)CC(NC(=O)c1cc(C#Cc2ccccc2)nc2ccccc12)C(=O)C(=O)NCCCNS(=O)(=O)c1ccccc1 (centres unmarked) [Example 119],80%,,
CCCC(NC(=O)c1cc(Cl)nc2ccccc12)C(=O)C(=O)NCCNS(=O)(=O)c1ccc(Cl)c(Cl)c1 (centres unmarked) [Example 152],,,"pIC50 (Table 5, head prints no unit): 6.49"
CC(C)CC(NC(=O)c1cc(C#Cc2ccccc2)nc2ccccc12)C(=O)C(=O)NCCNC(=O)Nc1ccccc1 (centres unmarked) [Example 116],89%,,
COC(CNC(=O)C(=O)C(CC(C)C)NC(=O)c1cc(C#Cc2ccccc2)nc2ccccc12)OC (centres unmarked) [Example 113],92%,,
"Cc1cc(C(=O)NC(Cc2ccccc2)C(=O)C(=O)NCCNS(=O)(=O)c2ccc(-c3ccccn3)s2)c2ccccc2n1 (single isomer, unassigned) [Example 142]",,7.62,
O=C(NCCCCO)C(=O)C(Cc1ccccc1)NC(=O)c1cc(C#Cc2ccccc2)nc2ccccc12 (centres unmarked) [Example 13],100%,,
CCCC(NC(=O)c1cc(Cl)nc2ccccc12)C(=O)C(=O)NCCNS(=O)(=O)c1ccc([N+](=O)[O-])cc1 (centres unmarked) [Example 150],,,Calpain I IC50 ** (value in parentheses: % inhibition) (Table 5): 78%
